Assay results as given in ChEMBL document CHEMBL1135885, “Designing small, nonsugar activators of antithrombin using hydropathic interaction analyses” (J Med Chem, 2002).

Key:
[1] = The second order rate constant for uncatalysed inhibition of factor Xa by antithrombin was determined for the compound at […]
[2] = The equilibrium dissociation constant was measured experimentally for the compounds interaction with antithrombin.; assay type: ADME
[3] = Catalysed acceleration of antithrombin inhibition of factor Xa (K-uncat = 120 +/- 10 M-1.s-1)
[4] = delta f max at pH 6.0; assay type: ADME
[5] = Equilibrium constants and K activator was determined.; assay type: ADME
[6] = delta f max at pH 7.4; assay type: ADME
[7] = The equilibrium dissociation constant antithrombin interaction was determined at pH 7.4; assay type: ADME

Compound	Kuncat [1]	Kd [2]	Kd [1]	Fold_increase [3]	Delta Fmax [4]	K act [5]	Delta Fmax [6]	Kd [7]
O=S(=O)(O)Oc1cc2c(c(OS(=O)(=O)O)c1)C[C@@H](OS(=O)(=O)O)[C@@H](c1ccc(OS(=O)(=O)O)c(OS(=O)(=O)O)c1)O2	120 M⁻¹ s⁻¹	10.5 µM	–	–	–	–	–	–
CO[C@H]1O[C@H](COS(=O)(=O)O)[C@@H](OC2O[C@H](C(=O)O)[C@@H](OC3O[C@H](COS(=O)(=O)O)[C@@H](O)[C@H](O)[C@H]3NS(=O)(=O)O)[C@H](O)[C@H]2O)[C@H](OS(=O)(=O)O)[C@H]1NS(=O)(=O)O (stereo partly drawn) [HEPARIN TRISACCHARIDE DEF]	–	–	2 µM	320	34%	45000 M⁻¹ s⁻¹	34%	66 µM
